Laboratory results reported in patent US8268817B2, “Substituted oxazole ketone modulators of fatty acid amide hydrolase” (The Scripps Research Institute, priority 2006, dated 2012).

What was measured:
[1] = biological target: T1, FAAH (solubilized liver plasma membrane extract) (Rattus norvegicus, UniProt P97612); test: FAAH enzyme assay, hydrolysis of 14C-oleamide to oleic acid; type: biochemical; details: 14C-oleamide substrate, pH 9.0, 20-23° C., Dixon method
T1 construct: using a solubilized liver plasma membrane extract containing FAAH; from tissue; host or cells: liver (plasma membrane extract, solubilized)
T1 sequence (P97612 1-579): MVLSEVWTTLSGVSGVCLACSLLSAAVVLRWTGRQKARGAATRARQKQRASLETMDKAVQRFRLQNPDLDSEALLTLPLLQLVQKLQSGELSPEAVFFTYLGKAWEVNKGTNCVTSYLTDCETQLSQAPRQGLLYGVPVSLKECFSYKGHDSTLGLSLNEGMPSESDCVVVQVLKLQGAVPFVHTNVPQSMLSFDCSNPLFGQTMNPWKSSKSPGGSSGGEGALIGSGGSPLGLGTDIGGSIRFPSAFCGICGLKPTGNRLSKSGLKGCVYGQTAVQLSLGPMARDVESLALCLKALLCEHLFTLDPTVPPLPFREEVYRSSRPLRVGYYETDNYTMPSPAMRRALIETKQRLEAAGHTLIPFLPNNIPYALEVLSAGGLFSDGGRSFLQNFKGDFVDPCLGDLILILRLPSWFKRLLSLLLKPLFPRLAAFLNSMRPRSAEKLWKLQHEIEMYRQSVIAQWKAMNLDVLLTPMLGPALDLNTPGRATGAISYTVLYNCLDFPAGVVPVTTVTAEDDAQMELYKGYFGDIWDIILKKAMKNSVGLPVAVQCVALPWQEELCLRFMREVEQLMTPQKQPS
Procedure: K; values were determined by the Dixon. Method (x-intercepts of weighted linear fits of [I] versus 1/rate plots at constant substrate concentration, which were converted to Ki values using the formula Ki=−xint/[1+[S]/Km]).

[2] = rats; cited from earlier work
[3] = rats; cited from earlier work; remark: listed apart in the source
[4] = rat; cited from earlier work
[5] = rats; cited from earlier work; remark: listed apart in the source
[6] = rats; cited from earlier work; remark: listed apart in the source
FAAH = biological target: T2, FAAH (Homo sapiens, UniProt O00519); details: cited from earlier work
T2 sequence (O00519 1-579): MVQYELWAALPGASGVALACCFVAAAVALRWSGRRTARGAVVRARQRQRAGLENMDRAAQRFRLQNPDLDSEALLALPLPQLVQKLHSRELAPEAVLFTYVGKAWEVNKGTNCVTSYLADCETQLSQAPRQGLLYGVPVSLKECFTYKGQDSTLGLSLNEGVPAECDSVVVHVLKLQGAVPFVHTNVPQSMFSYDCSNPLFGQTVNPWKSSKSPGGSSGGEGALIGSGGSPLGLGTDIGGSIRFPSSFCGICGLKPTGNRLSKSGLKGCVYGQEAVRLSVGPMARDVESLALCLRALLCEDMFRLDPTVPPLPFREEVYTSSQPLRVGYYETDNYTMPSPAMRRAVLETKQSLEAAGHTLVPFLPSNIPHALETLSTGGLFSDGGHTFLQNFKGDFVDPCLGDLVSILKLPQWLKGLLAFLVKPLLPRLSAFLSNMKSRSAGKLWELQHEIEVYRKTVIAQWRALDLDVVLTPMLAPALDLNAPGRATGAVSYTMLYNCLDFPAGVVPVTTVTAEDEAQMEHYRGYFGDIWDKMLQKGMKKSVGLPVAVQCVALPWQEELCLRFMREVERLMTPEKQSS

[7] = rats; cited from earlier work; remark: listed apart in the source
[8] = model of multiple sclerosis; cited from earlier work

SMILES: O=C(CCCCCCc1ccccc1)c1ncc(C(=O)N2CCSCC2)o1 [Example 6, 7-Phenyl-1-(5-(thiomorpholine-4-carbonyl)oxazol-2-yl)heptan-1-one]
- Ki [1]: 10 nM

SMILES: O=C(CCCCCCc1ccccc1)c1ncc(C(=O)N2CCCCC2)o1 [Example 5, 7-Phenyl-1-(5-(piperidine-1-carbonyl)oxazol-2-yl)heptan-1-one]
- Ki [1]: 8 nM

SMILES: O=C(CCCCCCc1ccccc1)c1ncc(S(=O)(=O)C(F)(F)F)o1 [Example 22, 7-Phenyl-1-(5-(trifluoromethylsulfonyl)oxazol-2-yl)heptan-1-one]
- Ki [1]: > 2 nM

SMILES: NC(=O)c1cccc(-c2cccc(OC(=O)NC3CCCCC3)c2)c1 [URB-597]
- efficacy in zero plus maze model of anxiety [2]: efficacy
- analgesic efficacy in hot plate test [3]: analgesic efficacy
- analgesic efficacy in formalin test [4]: analgesic efficacy

SMILES: Cc1nc(-c2ccccc2)c(-c2ccccc2)n1CCCCCCNC(=O)Oc1ccccc1F [BMS-1]
- analgesic effect in Chung spinal nerve ligation model [5]: analgesic effect
- analgesic effect in Hargraves test [6]: analgesic effect

SMILES: CN1CCN(C(=O)c2cnc(C(=O)CCCCCCc3ccccc3)o2)CC1 [Example 7, 1-(5-(4-Methylpiperazine-1-carbonyl)oxazol-2-yl)-7-phenylheptan-1-one]
- Ki [1]: 80 nM

SMILES: CNC(=O)c1cnc(C(=O)CCCCCCc2ccccc2)o1 [Example 8, N-Methyl-2-(7-phenylheptanoyl)oxazole-5-carboxamide]
- Ki [1]: 7 nM

SMILES: O=C(CCCCCCc1ccccc1)c1ncc(C(=O)N2CCOCC2)o1 [Example 4, 1-(5-(Morpholine-4-carbonyl)oxazol-2-yl)-7-phenylheptan-1-one]
- Ki [1]: 24 nM

SMILES: O=C(CCCCCCc1ccccc1)c1ncc(-c2ccccn2)o1 [OL-135]
- analgesic efficacy in hot plate test [3]: analgesic activity
- inhibition of FAAH (FAAH): potent inhibitor
- analgesic activity in tail emersion test [7]: analgesic activity

SMILES: CCCCCCCCCCCCCCCCS(=O)(=O)F [AM374]
- effect on spasticity in CREAE mice [8]: significantly reduce spasticity
